Measurements from patent US9975896B2, “Inhibitors of transcription factors and uses thereof” (Dana-Farber Cancer Institute, Inc., priority 2013, dated 2018).
Where a chain is given by its changes, count along the chain named.

What was measured:
[1] = target: T1, TRIM33(PHD Bromo.) (Homo sapiens, UniProt Q9UPN9); assay: BromoScan selectivity panel (Kd); assay type: binding
T1 construct: TRIM33(PHD, Bromo.); TRIM33(PHD Bromo.); fused on or other part: The vendor panel's detection tag or display handle
T1 sequence (Q9UPN9 1-1127): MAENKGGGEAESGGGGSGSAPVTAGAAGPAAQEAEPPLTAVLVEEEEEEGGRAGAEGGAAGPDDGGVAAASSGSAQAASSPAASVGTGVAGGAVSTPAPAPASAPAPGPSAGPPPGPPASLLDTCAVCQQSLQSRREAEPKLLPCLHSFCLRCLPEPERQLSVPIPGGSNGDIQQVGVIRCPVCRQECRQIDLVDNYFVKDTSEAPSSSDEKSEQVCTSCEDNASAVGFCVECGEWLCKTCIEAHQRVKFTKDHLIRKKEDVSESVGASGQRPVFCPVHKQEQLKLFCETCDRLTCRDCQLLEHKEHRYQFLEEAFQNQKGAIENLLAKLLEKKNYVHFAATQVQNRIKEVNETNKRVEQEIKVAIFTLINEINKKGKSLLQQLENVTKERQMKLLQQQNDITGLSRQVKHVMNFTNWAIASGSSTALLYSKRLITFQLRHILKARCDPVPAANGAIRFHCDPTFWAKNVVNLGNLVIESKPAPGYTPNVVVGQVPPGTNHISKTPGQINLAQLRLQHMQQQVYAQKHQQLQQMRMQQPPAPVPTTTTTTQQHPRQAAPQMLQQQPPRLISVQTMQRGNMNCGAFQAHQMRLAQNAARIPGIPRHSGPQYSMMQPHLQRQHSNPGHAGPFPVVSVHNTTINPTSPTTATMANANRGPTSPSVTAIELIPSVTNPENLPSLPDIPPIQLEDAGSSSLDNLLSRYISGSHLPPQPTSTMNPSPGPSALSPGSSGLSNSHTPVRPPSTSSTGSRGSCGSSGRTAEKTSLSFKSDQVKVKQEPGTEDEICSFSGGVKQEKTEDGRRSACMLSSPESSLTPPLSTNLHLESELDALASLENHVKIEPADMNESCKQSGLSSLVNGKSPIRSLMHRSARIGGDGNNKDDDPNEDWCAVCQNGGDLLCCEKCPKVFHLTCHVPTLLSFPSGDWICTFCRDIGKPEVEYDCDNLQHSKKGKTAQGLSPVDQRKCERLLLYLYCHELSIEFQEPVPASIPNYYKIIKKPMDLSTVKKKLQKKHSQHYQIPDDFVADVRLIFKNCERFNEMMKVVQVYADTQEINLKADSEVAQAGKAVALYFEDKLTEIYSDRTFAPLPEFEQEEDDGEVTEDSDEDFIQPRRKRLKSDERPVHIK

[2] = target: T2, BRPF3 (Homo sapiens, UniProt Q9ULD4); assay: BromoScan selectivity panel (Kd); assay type: binding
T2 sequence (Q9ULD4 589-693 limits assumed): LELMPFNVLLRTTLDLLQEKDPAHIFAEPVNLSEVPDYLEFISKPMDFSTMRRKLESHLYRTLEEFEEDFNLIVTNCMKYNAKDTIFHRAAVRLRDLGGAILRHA

[3] = target: T3, ATAD2B (Homo sapiens, UniProt Q9ULI0); assay: BromoScan selectivity panel (Kd); assay type: binding
T3 sequence (Q9ULI0 953-1085 limits assumed): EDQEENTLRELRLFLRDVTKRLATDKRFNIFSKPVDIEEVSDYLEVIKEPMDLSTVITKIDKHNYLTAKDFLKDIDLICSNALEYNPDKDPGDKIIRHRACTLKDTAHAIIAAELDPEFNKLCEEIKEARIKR

[4] = target: T4, BRD9 (Homo sapiens, UniProt Q9H8M2); assay: BromoScan selectivity panel (Kd); assay type: binding
T4 sequence (Q9H8M2 130-250 limits assumed): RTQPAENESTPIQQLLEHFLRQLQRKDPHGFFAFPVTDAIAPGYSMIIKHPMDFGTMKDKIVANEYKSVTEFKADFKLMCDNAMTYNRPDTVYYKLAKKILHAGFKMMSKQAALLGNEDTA

[5] = target: FALZ (Homo sapiens, UniProt Q12830); assay: BromoScan selectivity panel (Kd); assay type: binding
[6] = target: T5, TAF1L(2) (Homo sapiens, UniProt Q8IZX4); assay: BromoScan selectivity panel (Kd); assay type: binding
T5 construct: TAF1L(2)
T5 sequence (Q8IZX4 1517-1626 limits assumed): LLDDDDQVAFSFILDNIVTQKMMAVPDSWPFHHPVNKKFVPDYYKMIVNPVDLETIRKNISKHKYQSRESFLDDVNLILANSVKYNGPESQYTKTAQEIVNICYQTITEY

[7] = target: T6, ATAD2A (Homo sapiens, UniProt Q6PL18); assay: BromoScan selectivity panel (Kd); assay type: binding
T6 sequence (Q6PL18 981-1108 limits assumed): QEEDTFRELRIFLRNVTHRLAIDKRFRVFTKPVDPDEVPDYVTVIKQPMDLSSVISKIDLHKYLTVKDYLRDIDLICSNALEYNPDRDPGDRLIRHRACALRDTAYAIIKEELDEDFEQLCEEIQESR

[8] = target: T7, BAZ2A (Homo sapiens, UniProt Q9UIF9); assay: BromoScan selectivity panel (Kd); assay type: binding
T7 sequence (Q9UIF9 1796-1899 limits assumed): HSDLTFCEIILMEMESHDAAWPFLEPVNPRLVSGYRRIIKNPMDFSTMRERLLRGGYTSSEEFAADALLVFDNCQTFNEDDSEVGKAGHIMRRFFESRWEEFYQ

[9] = target: T8, CBP (Homo sapiens, UniProt Q92793); assay: BromoScan selectivity panel (Kd)
Target sequence in this assay (Q92793 1081-1197 limits assumed): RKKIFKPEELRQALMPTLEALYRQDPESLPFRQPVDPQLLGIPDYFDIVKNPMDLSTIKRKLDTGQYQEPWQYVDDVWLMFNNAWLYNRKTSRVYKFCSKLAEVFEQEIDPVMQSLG

[10] = target: T9, BRDT(1) (Homo sapiens, UniProt Q58F21); assay: BromoScan selectivity panel (Kd); assay type: binding
T9 construct: the bromodomain-containing protein is BRDT(1)

[11] = target: T10, BAZ2B (Homo sapiens, UniProt Q9UIF8); assay: BromoScan selectivity panel (Kd); assay type: binding
T10 sequence (Q9UIF8 2054-2168 limits assumed): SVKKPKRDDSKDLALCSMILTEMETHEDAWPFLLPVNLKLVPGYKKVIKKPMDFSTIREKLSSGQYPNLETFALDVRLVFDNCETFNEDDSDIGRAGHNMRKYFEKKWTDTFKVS

[12] = target: T11, WDR9(2) (Homo sapiens, UniProt Q9NSI6); assay: BromoScan selectivity panel (Kd); assay type: binding
T11 construct: WDR9(2)

[13] = target: T12, EP300 (Homo sapiens, UniProt Q09472); assay: BromoScan selectivity panel (Kd); assay type: binding
T12 sequence (Q09472 1040-1161 limits assumed): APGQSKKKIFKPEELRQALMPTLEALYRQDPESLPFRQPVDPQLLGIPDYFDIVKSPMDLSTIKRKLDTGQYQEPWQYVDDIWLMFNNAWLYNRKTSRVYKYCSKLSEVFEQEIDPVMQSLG

[14] = target: T13, BRD1 (Homo sapiens, UniProt O95696); assay: BromoScan selectivity panel (Kd); assay type: binding
T13 sequence (O95696 556-688 limits assumed): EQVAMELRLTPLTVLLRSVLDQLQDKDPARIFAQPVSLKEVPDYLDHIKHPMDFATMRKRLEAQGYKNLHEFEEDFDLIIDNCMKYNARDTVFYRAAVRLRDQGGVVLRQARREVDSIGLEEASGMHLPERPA

[15] = target: BRDT(2) (Homo sapiens, UniProt Q58F21); assay: BromoScan selectivity panel (Kd); assay type: binding
[16] = target: T14, TRIM24(PHD Bromo.) (Homo sapiens, UniProt O15164); assay: BromoScan selectivity panel (Kd); assay type: binding
T14 construct: TRIM24(PHD Bromo.)
T14 sequence (O15164 824-1006 limits assumed): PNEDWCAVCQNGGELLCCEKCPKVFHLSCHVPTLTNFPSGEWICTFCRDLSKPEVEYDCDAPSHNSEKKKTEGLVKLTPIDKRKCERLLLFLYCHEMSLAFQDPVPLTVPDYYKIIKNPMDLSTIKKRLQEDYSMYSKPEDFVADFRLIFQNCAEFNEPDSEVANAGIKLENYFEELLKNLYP

[17] = target: T15, TAF1(2) (Homo sapiens, UniProt P21675); assay: BromoScan selectivity panel (Kd); assay type: binding
T15 construct: TAF1(2)
T15 sequence (P21675 1519-1628 limits assumed): T5 sequence (Q8IZX4 1517-1626 limits assumed) with M46V, V51M, I102V, I107L

[18] = target: T16, BRPF1 (Homo sapiens, UniProt P55201); assay: BromoScan selectivity panel (Kd); assay type: binding
T16 sequence (P55201 626-740 limits assumed): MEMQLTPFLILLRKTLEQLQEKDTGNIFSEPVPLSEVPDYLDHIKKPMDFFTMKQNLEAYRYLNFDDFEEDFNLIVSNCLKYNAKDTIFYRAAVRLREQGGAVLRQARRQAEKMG

[19] = target: BRD4 (Homo sapiens, UniProt O60885); assay: In vitro AlphaScreen protein binding assay (competition with biotinylated JQ1)
Procedure: (§1) Assays were performed with minor modifications from the manufacturer's protocol (PerkinElmer, USA). All reagents were diluted in 50 mM HEPES, 150 mM NaCl, 0.1% w/v BSA, and 0.01% w/v Tween® 20 at pH 7.5 and allowed to equilibrate to room temperature prior to addition to plates. After addition of Alpha beads to master solutions, all subsequent steps were performed in low light conditions. […] After a 1000-rpm spin-down for 1 minute, 100 nL of the solutions of compounds of the invention in DMSO from stock plates were added by pin transfer using a Janus Workstation (PerkinElmer, USA). The streptavidin-coated donor beads (25 μg/ml final) were added as with previous solution in a 2×, 10 μL volume. Following this addition, the plates were sealed with foil to block light exposure and to prevent evaporation. The plates were spun down again at 1000 rpm for 1 minute. Next, the plates were incubated in the room with the plate reader (for temperature equilibration) for 1 hour prior to reading the assay. Signal is stable for up to 3 hours after donor bead addition.

[20] = system: BRD4-dependent Nut-Midline Carcinoma line 797; assay: Cell viability (ATPlite) in BRD4 dependant cell line 797; settings: Homo sapiens, read-out: 797--EC50 (μM)
[21] = target: T8, CBP; assay: In vitro AlphaScreen protein binding assay, CBP
Target sequence in this assay (Q92793 1085-1192 limits assumed): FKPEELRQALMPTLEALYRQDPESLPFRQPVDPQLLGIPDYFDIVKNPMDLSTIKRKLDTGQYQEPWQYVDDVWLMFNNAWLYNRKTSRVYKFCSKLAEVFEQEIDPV
Procedure: as §1

[22] = system: lung carcinoma cell line H2171; assay: Cellular IC50 in lung carcinoma cell line H2171; assay type: cell-based
Procedure: Cells (e.g., BRD4 dependant cells) were counted and adjusted to 60,000 cells/mL. Using a Biotek EL406, 50 μL of the cells in media were distributed into 384 well white plates from Thermo. Immediately after plating, compounds of the invention in DMSO were distributed to plates. For large plate sets, cells were returned to a 37° C. incubator while not in use. The compounds were added to plates using a 100 nL 384 well pin transfer manifold on a Janus workstation. Stocks were arrayed in 10 point quadruplicate dose response in DMSO stock in 384-well Greiner compound plates. After addition of the compounds, plates were incubated for three days in a 37° C. incubator. Cell viability was read out using ATPlite from Perkin Elmer. Plates were removed from the incubator and brought to room temperature prior to use. Lyophilized powder was resuspended in lysis buffer and diluted 1:2 with DI water. 25 μL of this solution was added to each well using the Biotek liquid handler. Plates were sealed with adherent aluminum seals prior to vortexing and spinning down at 1000 g for 1 minute. Plates were incubated for 15 minutes at room temperature before signal was read on an Envision Plate Reader.

T11 sequence (Q9NSI6 1313-1418 limits assumed): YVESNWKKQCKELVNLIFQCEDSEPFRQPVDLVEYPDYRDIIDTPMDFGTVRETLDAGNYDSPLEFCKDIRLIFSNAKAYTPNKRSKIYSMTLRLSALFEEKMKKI

Compound | Kd [1] [µM] | Kd [2] [µM] | Kd [3] [µM] | Kd [4] [µM] | Kd [5] [µM] | Kd [7] [µM] | Kd [8] [µM] | Kd [9] [µM] | Kd [11] [µM] | Kd [12] [µM] | Kd [13] [µM] | Kd [16] [µM] | Kd [18] [µM] | further results
CCNC(=O)C[C@@H]1N=C(c2ccc(Cl)cc2)c2cc(OC)ccc2-n2c(C)nnc21 [I-BET, reference compound] | ≥ 40 | ≥ 40 | ≥ 40 | ≥ 40 | ≥ 40 | ≥ 40 | ≥ 40 | 76 | ≥ 40 | ≥ 40 | 71 | ≥ 40 | ≥ 40 | Kd [6]: ≥ 40 µM; Kd [10]: 160 nM; Kd [14]: ≥ 40 µM; Kd [15]: 45 nM; Kd [17]: ≥ 40 µM
Cc1sc2c(c1C)C(c1ccc(Cl)cc1)=NC(CC(=O)OC(C)(C)C)c1nnc(C)n1-2 (stereo not shown) [JQ1, reference compound] | ≥ 40 | ≥ 40 | ≥ 40 | ≥ 40 | ≥ 40 | ≥ 40 | ≥ 40 | 24 | ≥ 40 | ≥ 40 | 51 | ≥ 40 | ≥ 40 | 
CCOC(=O)[C@]1(C)N[C@H](c2ccc(-c3c(C)noc3C)cc2)[C@@H]2C(=O)N(CC)C(=O)[C@@H]21 [UMB17, (1R,3S,3aR,6aS)-ethyl 3-(4-(3,5-dimethylisoxazol-4-yl)phenyl)-5-ethyl-1-methyl-4,6-dioxooctahydropyrrolo[3,4-c]pyrrole-1-carboxylate] |  |  |  |  |  |  |  |  |  |  |  |  |  | IC50 ([19]; BRD4--IC50 (μM), Table 5, biochemical): > 100 µM; IC50 ([19]; BRD4 IC50 (μM), Table 2, AlphaScreen): 122 µM; EC50 [20]: 9.42 µM; IC50 [21]: 30 µM; IC50 ([22]; Homo sapiens, NCI-H2171, Table 2, cellular, lung carcinoma cell line H2171): 55 µM; cellular activity in H2171 ([22]; text b616): show cellular activity in H2171
